According to patent US11857515B2, “Branched amino acid surfactants for use in healthcare products” (AdvanSix Resins & Chemicals LLC, priority 2020, dated 2024):
“And” between values parts separate entries of the source, which are not always exact repeats. Equal entries are not always repeated.

Tests used:
Type in all cases: physicochemical
[1] = Dynamic surface tension, bubble pressure tensiometer; details: 23° C.
Procedure: One method by which dynamic surface tension is measured relies upon a bubble pressure tensiometer. This device measures the maximum internal pressure of a gas bubble that is formed in a liquid by means of a capillary. The measured value corresponds to the surface tension at a certain surface age, the time from the start of the bubble formation to the occurrence of the pressure maximum. The dependence of surface tension on surface age can be measured by varying the speed at which bubbles are produced.
(§1) Nuclear magnetic resonance (NMR) spectroscopy was performed on a Bruker 500 MHz spectrometer. The critical micelle concentration (CMC) was determined by the Wilhelmy plate method at 23° C. with a tensiometer (DCAT 11, DataPhysics Instruments GmbH) equipped with a Pt—Ir plate. Dynamic surface tension was determined with a bubble pressure tensiometer (Krüss BP100, Krüss GmbH), at 23° C. Contact angle was determined with the optical contact angle goniometer (OCA 15 Pro, DataPhysics GmbH) equipped with a digital camera.
The dynamic surface tension of the 6-((2-butyloctyl)oxy)-N,N-dimethyl-6-oxohexan-1-aminium 4-methylbenzenesulfonate from Example 2a was determined with a bubble pressure tensiometer which measures the change of surface tension of a freshly created air-water interface with time. FIG. 2B presents a plot of the surface tension versus time, showing that surface tension in the time interval between 10 and 100 ms drops rapidly from about 46 mN/m to about 30 mN/m. In the time interval from 100 to 8,000 ms, the surface tension drops slowly from 30 mN/m to about 27 mN/m, approaching asymptotically the saturation value of the surface tension at the CMC.

[2] = Wetting properties: contact angle on solid substrates, optical contact angle goniometer; details: 10x CMC
Source text: Surface-active compounds may also be assessed by their wetting ability on solid substrates as measured by the contact angle. When a liquid droplet comes in contact with a solid surface in a third medium, such as air, a three-phase line forms among the liquid, the gas and the solid. The angle between the surface tension unit vector, acting at the three-phase line and tangent at the liquid droplet, and the surface is described as the contact angle. The contact angle (also known as wetting angle) is a measure of the wettability of a solid by a liquid. In the case of complete wetting, the liquid is completely spread over the solid and the contact angle is 0°. Wetting properties are typically measured for a given compound at the concentration of 1-10×CMC, however, it is not a property that is concentration-dependent therefore measurements of wetting properties can be measured at concentrations that are higher or lower.
In one method, an optical contact angle goniometer may be used to measure the contact angle. This device uses a digital camera and software to extract the contact angle by analyze the contour shape of a sessile droplet of liquid on a surface.
as §1
In addition to surface tension and surface dynamics, the wetting properties of the 6-((2-butyloctyl)oxy)-N,N-dimethyl-6-oxohexan-1-aminium 4-methylbenzenesulfonate from Example 2a were tested on various surfaces.

[3] = Critical micelle concentration (CMC) from surface tension versus concentration, Wilhelmy plate method; details: for surface tension at the CMC: from plot of surface tension versus concentration; for surface tension at the CMC / minimum surface tension that can be reached (plateau / asymptotic value): pH=7; for minimum surface tension that can be reached (plateau / asymptotic value) / critical micelle concentration (CMC): in water
Source text: As surfactant concentration increases, surface tension decreases. Once the surface is completely overlaid with surfactant molecules, micelles begin to form. This point represents the CMC, as well as the minimum surface tension. Further addition of surfactant will not further affect the surface tension. CMC may therefore be measured by observing the change in surface tension as a function of surfactant concentration. One such method for measuring this value is the Wilhemy plate method. A Wilhelmy plate is usually a thin iridium-platinum plate attached to a balance by a wire and placed perpendicularly to the air-liquid interface. The balance is used to measure the force exerted on the plate by wetting. This value is then used to calculate the surface tension (γ) according to Equation 1: γ=F/I cos θ Equation 1: wherein I is equal to the wetted perimeter (2w+2d, in which w and d are the […], respectively) and cos θ, the contact angle between the liquid and the plate, is assumed to be 0 in the absence of an extant literature value.
as §1
The critical micelle concentration (CMC) of the 6-((2-butyloctyl)oxy)-N,N,N-trimethyl-6-oxohexan-1-aminium iodide from Example 1a was tested. […] From the plot of the results, the surface tension at the CMC is equal to or less than about 27 mN/m.
The critical micelle concentration (CMC) of the 6-((2-butyloctyl)oxy)-N,N-dimethyl-6-oxohexan-1-aminium 4-methylbenzenesulfonate from Example 2a was tested. From the change in surface tension with concentration in water, the CMC was determined to be about 0.97 mmol. The plateau value of minimum surface tension that can be reached by this surfactant is about 27 mN/m, namely 27 mN/m±3 mN/m. […] From the plot of the results, the surface tension at the CMC is equal to or less than about 30 mN/m.

[4] = substrate Polyethylene terephthalate

## CCCCCCC(CCCC)COC(=O)CCCCCN.Cc1ccc(S(=O)(=O)O)cc1 (stereo not shown) [Example 7a, 6-((2-butyloctyl)oxy)-6-oxohexan-1-aminium 4-methylbenzenesulfonate]
[1]; surface age 10 ms
  dynamic surface tension: about 46 mN/m
[1]; surface age 100 ms
  dynamic surface tension: about 30 mN/m
[1]; surface age 8,000 ms
  dynamic surface tension: about 27 mN/m
[2]; substrate Nylon
  CA of Surfactant (contact angle): 12.6 °
[2]; [4]
  CA of Surfactant (contact angle): 13.2 °
[2]; substrate Polyethylene-HD
  CA of Surfactant (contact angle): 14.6 °
[2]; substrate Teflon
  CA of Surfactant (contact angle): 49.4 °
[3]; at a concentration of about 1.0 mmol or greater
  surface tension: ≤ 28.5 mN/m
[3]
  surface tension at the CMC: ≤ 30 mN/m
[3]; 23° C.
  minimum surface tension that can be reached (plateau / asymptotic value): about 27 mN/m
[3]; 23° C., pH=7, Wilhelmy plate
  critical micelle concentration (CMC): about 2.12 mmol

## CCCCCCC(CCCC)COC(=O)CCCCC[N+](C)(C)[O-] (stereo not shown) [Example 5a, 2-butyloctyl 6-(dimethylamino)hexanoate N-oxide]
[1]; surface age 10 ms
  dynamic surface tension: about 60 mN/m
[1]; surface age 1,000 ms
  dynamic surface tension: about 30 mN/m
[1]; surface age 8,000 ms
  dynamic surface tension: about 28 mN/m
[2]; substrate Nylon
  CA of Surfactant (contact angle): 38.5 °
[2]; [4]
  CA of Surfactant (contact angle): 9.2 °
[2]; substrate Polyethylene-HD
  CA of Surfactant (contact angle): 31.6 ° and 31.9 °
[2]; substrate Teflon
  CA of Surfactant (contact angle): 41.5 ° and 41.0 °
[3]
  surface tension at the CMC: ≤ 28 mN/m
[3]; 23° C.
  minimum surface tension that can be reached (plateau / asymptotic value): about 28 mN/m
[3]; 23° C., pH=7, Wilhelmy plate
  critical micelle concentration (CMC): about 0.29 mmol

## CCCCCCC(CCCC)COC(=O)CCCCC[N+](C)(C)C.[I-] (stereo not shown) [Example 1a, 6-((2-butyloctyl)oxy)-N,N,N-trimethyl-6-oxohexan-1-aminium iodide]
[3]; 23° C., pH=7, Wilhelmy plate
  critical micelle concentration (CMC), not clearly determined up to this concentration: > 10 mg/mL
[3]
  surface tension at the CMC: ≤ 27 mN/m
[3]; 23° C.
  minimum surface tension that can be reached (plateau / asymptotic value): about 27 mN/m

## CCCCCCC(CCCC)COC(=O)CCCCCN(C)C.Cc1ccc(S(=O)(=O)O)cc1 (stereo not shown) [Example 2a, 6-((2-butyloctyl)oxy)-N,N-dimethyl-6-oxohexan-1-aminium 4-methylbenzenesulfonate]
[1]; surface age 10 ms
  dynamic surface tension: about 46 mN/m
[1]; surface age 100 ms
  dynamic surface tension: about 30 mN/m
[1]; surface age 8,000 ms
  dynamic surface tension: about 27 mN/m
[2]; substrate Nylon
  CA of Surfactant (contact angle): 13.5 °
[2]; [4]
  CA of Surfactant (contact angle): 7.7 °
[2]; substrate Polyethylene-HD
  CA of Surfactant (contact angle): 24.3 °
[2]; substrate Teflon
  CA of Surfactant (contact angle): 48.2 °
[3]
  surface tension at the CMC: ≤ 30 mN/m
[3]; 23° C.
  minimum surface tension that can be reached (plateau / asymptotic value): about 27 mN/m
[3]; 23° C., pH=7, Wilhelmy plate
  critical micelle concentration (CMC): about 0.97 mmol

## CCCCCCC(CCCC)COC(=O)CCCCCN.Cl (stereo not shown) [Example 6a, 6-((2-butyloctyl)oxy)-6-oxohexan-1-aminium chloride]
[1]; surface age 10 ms
  dynamic surface tension: about 69 mN/m
[1]; surface age 1,000 ms
  dynamic surface tension: about 49 mN/m
[1]; surface age 8,000 ms
  dynamic surface tension: about 29 mN/m
[2]; substrate Nylon
  CA of Surfactant (contact angle): 24.5 °
[2]; [4]
  CA of Surfactant (contact angle): 20.1 °
[2]; substrate Polyethylene-HD
  CA of Surfactant (contact angle): 25.8 °
[2]; substrate Teflon
  CA of Surfactant (contact angle): 48.7 °
[3]
  surface tension at the CMC: ≤ 30 mN/m
[3]; 23° C.
  minimum surface tension that can be reached (plateau / asymptotic value): about 27 mN/m
[3]; 23° C., pH=7, Wilhelmy plate
  critical micelle concentration (CMC): about 0.15 mmol

## CCCCCCC(CCCC)COC(=O)CCCCCN(C)C.Cl (stereo not shown) [Example 3a, 6-((2-butyloctyl)oxy)-N,N-dimethyl-6-oxohexan-1-aminium chloride]
[3]; 23° C.
  minimum surface tension that can be reached (plateau / asymptotic value): about 29 mN/m

## CCCCCCC(CCCC)COC(=O)CCCCC[N+](C)(C)CCCCS(=O)(=O)[O-] (stereo not shown) [Example 4a, 4-((6-((2-butyloctyl)oxy)-6-oxohexyl)dimethylammonio)butane-1-sulfonate]
[1]; surface age 10 ms
  dynamic surface tension: about 66 mN/m
[1]; surface age 100 ms
  dynamic surface tension: about 36 mN/m
[1]; surface age 8,000 ms
  dynamic surface tension: about 32 mN/m
[2]; substrate Nylon
  CA of Surfactant (contact angle): 28.7 °
[2]; [4]
  CA of Surfactant (contact angle): 29.8 °
[2]; substrate Polyethylene-HD
  CA of Surfactant (contact angle): 44.4 °
[2]; substrate Teflon
  CA of Surfactant (contact angle): 62.2 °
[3]
  surface tension at the CMC: ≤ 32 mN/m
[3]; 23° C.
  minimum surface tension that can be reached (plateau / asymptotic value): about 32 mN/m
[3]; 23° C., pH=7, Wilhelmy plate
  critical micelle concentration (CMC): about 0.54 mmol
